Results reported in the supplement of paper PMC10307832.

Experiments:
Test in all cases: relative viability (nuclei count vs DMSO), 5 days (fraction); higher = more cells survive
Alisertib + Phenformin = compound: COc1cc(Nc2ncc3c(n2)-c2ccc(Cl)cc2C(c2c(F)cccc2OC)=NC3)ccc1C(=O)O [Alisertib] + N=C(N)NC(=N)NCCc1ccccc1 [Phenformin] (partner 250 µM)
Outline: (§1)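 Relative viability divides the nuclei count in treated wells by that in vehicle wells. Lung cancer cell lines were seeded in 1536-well plates, dosed by pin tool the next day, and fixed and stained after 5 days in one step with final 0.05% Triton X-100, 1% formaldehyde and 1 ug/ml Hoechst. Dosing was a single drug or a fixed anchor-drug dose plus five library-drug doses (not always all listed) in √10 steps, and values are medians of duplicate plates imaged at 4×.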

Alisertib + Pictilisib = compound: COc1cc(Nc2ncc3c(n2)-c2ccc(Cl)cc2C(c2c(F)cccc2OC)=NC3)ccc1C(=O)O [Alisertib] + CS(=O)(=O)N1CCN(Cc2cc3nc(-c4cccc5[nH]ncc45)nc(N4CCOCC4)c3s2)CC1 [Pictilisib] (partner 1 µM)
Outline: as §1

Alisertib + Decitabine = compound: COc1cc(Nc2ncc3c(n2)-c2ccc(Cl)cc2C(c2c(F)cccc2OC)=NC3)ccc1C(=O)O [Alisertib] + Nc1ncn([C@H]2C[C@H](O)[C@@H](CO)O2)c(=O)n1 [Decitabine] (partner 2 µM)
Outline: as §1

Alisertib + Palbociclib = compound: COc1cc(Nc2ncc3c(n2)-c2ccc(Cl)cc2C(c2c(F)cccc2OC)=NC3)ccc1C(=O)O [Alisertib] + CC(=O)c1c(C)c2cnc(Nc3ccc(N4CCNCC4)cn3)nc2n(C2CCCC2)c1=O [Palbociclib] (partner 0.5 µM)
Outline: as §1

| Cell Line | relative viability (Alisertib + Phenformin; first compound 0.005 µM) | relative viability (Alisertib + Phenformin; first compound 0.01581 µM) | relative viability (Alisertib + Phenformin; first compound 0.05 µM) | relative viability (Alisertib + Phenformin; first compound 0.1581 µM) | relative viability (Alisertib + Phenformin; first compound 0.5 µM) | relative viability (Alisertib + Pictilisib; first compound 0.005 µM) | relative viability (Alisertib + Pictilisib; first compound 0.01581 µM) | relative viability (Alisertib + Pictilisib; first compound 0.05 µM) | relative viability (Alisertib + Pictilisib; first compound 0.1581 µM) | relative viability (Alisertib + Pictilisib; first compound 0.5 µM) | relative viability (Alisertib + Decitabine; first compound 0.005 µM) | relative viability (Alisertib + Decitabine; first compound 0.01581 µM) | relative viability (Alisertib + Decitabine; first compound 0.05 µM) | relative viability (Alisertib + Decitabine; first compound 0.1581 µM) | relative viability (Alisertib + Decitabine; first compound 0.5 µM) | relative viability (Alisertib + Palbociclib; first compound 0.005 µM) | relative viability (Alisertib + Palbociclib; first compound 0.01581 µM) | relative viability (Alisertib + Palbociclib; first compound 0.05 µM) | relative viability (Alisertib + Palbociclib; first compound 0.1581 µM) | relative viability (Alisertib + Palbociclib; first compound 0.5 µM) |
| --- | --- | --- | --- | --- | --- | --- | --- | --- | --- | --- | --- | --- | --- | --- | --- | --- | --- | --- | --- | --- |
| NCI-H358 | 0.259 | 0.262 | 0.118 | 0.0826 | 0.0797 | 0.269 | 0.327 | 0.217 | 0.154 | 0.14 | 0.222 | 0.186 | 0.121 | 0.086 | 0.098 | 0.111 | 0.117 | 0.104 | 0.0711 | 0.0985 |
| SK-MES-1 | 0.643 | 0.684 | 0.502 | 0.38 | 0.146 | 0.326 | 0.333 | 0.212 | 0.147 | 0.123 | 0.373 | 0.346 | 0.225 | 0.158 | 0.167 | 0.316 | 0.346 | 0.29 | 0.226 | 0.161 |
| NCI-H1666 | 0.522 | 0.49 | 0.506 | 0.426 | 0.344 | 0.389 | 0.355 | 0.227 | 0.21 | 0.214 | 0.785 | 0.63 | 0.615 | 0.537 | 0.441 | 0.609 | 0.585 | 0.595 | 0.551 | 0.489 |
| NCI-H1355 | 0.4 | 0.353 | 0.23 | 0.182 | 0.189 | 0.37 | 0.374 | 0.28 | 0.181 | 0.164 | 0.347 | 0.358 | 0.229 | 0.177 | 0.154 | 0.362 | 0.393 | 0.37 | 0.291 | 0.142 |
| HCC-827 | 0.353 | 0.431 | 0.39 | 0.198 | 0.178 | 0.869 | 0.978 | 0.515 | 0.381 | 0.361 | 0.373 | 0.303 | 0.246 | 0.219 | 0.24 | 0.459 | 0.537 | 0.379 | 0.27 | 0.207 |
| HARA | 0.398 | 0.469 | 0.358 | 0.187 | 0.133 | 0.283 | 0.426 | 0.511 | 0.112 | 0.0803 | 0.524 | 0.58 | 0.334 | 0.208 | 0.145 | 0.288 | 0.242 | 0.243 | 0.161 | 0.147 |
| HCC-366 | 0.552 | 0.202 | 0.138 | 0.0286 | 0.0335 | 0.0828 | 0.135 | 0.0183 | 0.0243 | 0.0203 | 0.29 | 0.16 | 0.0371 | 0.0279 | 0.0431 | 0.361 | 0.322 | 0.0243 | 0.0284 | 0.039 |
| NCI-H322M | 0.683 | 0.793 | 0.572 | 0.412 | 0.409 | 0.497 | 0.477 | 0.451 | 0.321 | 0.311 | 0.714 | 0.654 | 0.482 | 0.425 | 0.48 | 0.473 | 0.475 | 0.477 | 0.413 | 0.417 |
| NCI-H2347 | 0.346 | 0.373 | 0.299 | 0.411 | 0.242 | 0.534 | 0.431 | 0.41 | 0.376 | 0.429 | 0.574 | 0.582 | 0.523 | 0.51 | 0.374 | 0.427 | 0.429 | 0.438 | 0.387 | 0.362 |
| NCI-H1975 | 0.405 | 0.375 | 0.265 | 0.176 | 0.137 | 0.26 | 0.348 | 0.237 | 0.151 | 0.163 | 0.32 | 0.359 | 0.142 | 0.191 | 0.153 | 0.454 | 0.547 | 0.299 | 0.259 | 0.168 |
| ABC-1 | 0.269 | 0.225 | 0.185 | 0.218 | 0.195 | 0.674 | 0.606 | 0.578 | 0.277 | 0.232 | 1.12 | 0.915 | 0.869 | 0.598 | 0.33 | 0.697 | 0.661 | 0.67 | 0.371 | 0.316 |
| A-427 | 0.298 | 0.187 | 0.117 | 0.132 | 0.121 | 0.615 | 0.451 | 0.234 | 0.147 | 0.172 | 0.52 | 0.442 | 0.233 | 0.211 | 0.211 | 0.493 | 0.444 | 0.255 | 0.276 | 0.24 |
| LCLC-97TM1 | 0.451 | 0.386 | 0.333 | 0.174 | 0.153 | 0.223 | 0.167 | 0.135 | 0.108 | 0.0964 | 0.235 | 0.168 | 0.114 | 0.115 | 0.144 | 0.222 | 0.215 | 0.127 | 0.0905 | 0.0969 |
| HCC-15 | 0.401 | 0.313 | 0.178 | 0.108 | 0.1 | 0.586 | 0.64 | 0.233 | 0.117 | 0.123 | 0.541 | 0.316 | 0.19 | 0.13 | 0.139 | 0.661 | 0.465 | 0.296 | 0.213 | 0.146 |
| NCI-H650 | 0.404 | 0.377 | 0.258 | 0.202 | 0.168 | 0.732 | 0.825 | 0.29 | 0.267 | 0.174 | 0.295 | 0.282 | 0.275 | 0.185 | 0.18 | 0.326 | 0.327 | 0.191 | 0.159 | 0.163 |
| UMC-11 | 0.235 | 0.192 | 0.176 | 0.174 | 0.164 | 0.316 | 0.379 | 0.129 | 0.137 | 0.133 | 0.514 | 0.324 | 0.291 | 0.213 | 0.214 | 0.331 | 0.289 | 0.248 | 0.223 | 0.275 |
